Values joined by “and” are separate entries in the source; they are usually repeats but may differ in a detail not shown here. Equal entries are not always repeated.
Assays:
[1] = biological target: catE / beta-secretase (BACE); assay: CatE/BACE selectivity (ratio of IC50 values); format: biochemical; settings: each value is an average of four experimental runs; multiple values = more than one experiment
Experimental: (§1) Selectivity was calculated as a ratio of inhibition (IC50) values in which the inhibition of beta-secretase was compared to the inhibition of other aspartyl proteases.
Selectivity is reported as the ratio of IC50(catE):IC50(BACE).
(§2) In the following examples, each value is an average of four experimental runs and multiple values for one compound indicate that more than one experiment was conducted.

[2] = biological target: catD / beta-secretase (BACE); assay: CatD/BACE selectivity (ratio of IC50 values); format: biochemical; settings: each value is an average of four experimental runs; multiple values = more than one experiment
Experimental: as §1, §2

Structure (SMILES)	IC50 catE/IC50 BACE [1]	IC50 catD/IC50 BACE [2]
COC1CCC(NCC(O)C(Cc2cc(F)cc(F)c2)NC(C)=O)(c2cccc(C(C)(C)C)c2)CC1 (single isomer, unassigned) [196B-3 Diastereomer A, N-[3-[1-(3-tert-Butyl-phenyl)-4-methoxy-cyclohexylamino]-1-(3,5-difluoro-benzyl)-2-hydroxy-propyl]-acetamide]	1.8 and 1.5	–
COC1CCC(NCC(O)C(Cc2cc(F)cc(F)c2)NC(C)=O)(c2cccc(C(C)(C)C)c2)CC1 (single isomer, unassigned) [196B-4 Diastereomer B, N-[3-[1-(3-tert-Butyl-phenyl)-4-methoxy-cyclohexylamino]-1-(3,5-difluoro-benzyl)-2-hydroxy-propyl]-acetamide]	1.5	–
CONC1CCC(NCC(O)C(Cc2cc(F)cc(F)c2)NC(C)=O)(c2cccc(C(C)(C)C)c2)CC1 (single isomer, unassigned) [196B-11 Diastereomer A, N-(4-(1-(3-tert-butylphenyl)-4-(methoxyamino)cyclohexylamino)-1-(3,5-difluorophenyl)-3-hydroxybutan-2-yl)acetamide]	7.4	–
CONC1CCC(NCC(O)C(Cc2cc(F)cc(F)c2)NC(C)=O)(c2cccc(C(C)(C)C)c2)CC1 (single isomer, unassigned) [196B-12 Diastereomer B, N-(4-(1-(3-tert-butylphenyl)-4-(methoxyamino)cyclohexylamino)-1-(3,5-difluorophenyl)-3-hydroxybutan-2-yl)acetamide]	12.5	–
CSC1CCC(NCC(O)C(Cc2cc(F)cc(F)c2)NC(C)=O)(c2cccc(C(C)(C)C)c2)CC1 (single isomer, unassigned) [196B-14 Diastereomer A, N-[3-[1-(3-tert-Butyl-phenyl)-4-methylsulfanyl-cyclohexylamino]-1-(3,5-difluoro-benzyl)-2-hydroxy-propyl]-acetamide]	5.5 and 3.4 and 2.9	–
CCS(=O)(=O)N1CCC(NCC(O)C(Cc2cc(F)cc(F)c2)NC(C)=O)(c2cccc(C(C)(C)C)c2)CC1 (centres unmarked) [Example 196A-15, N-[3-[4-(3-tert-Butyl-phenyl)-1-ethanesulfonyl-piperidin-4-ylamino]-1-(3,5-difluoro-benzyl)-2-hydroxy-propyl]-acetamide]	–	13.1
CC(=O)NC(Cc1cc(F)cc(F)c1)C(O)CNC1(c2cccc(-c3ccsc3)c2)CCC(=O)CC1 (centres unmarked) [Example 196A-19, N-(1-(3,5-difluorophenyl)-3-hydroxy-4-(4-oxo-1-(3-(thiophen-3-yl)phenyl)cyclohexylamino)butan-2-yl)acetamide]	–	4.4
CC(=O)NC(Cc1cc(F)cc(F)c1)C(O)CNC1(c2cccc(C(C)(C)C)c2)CCCN(C)C1 (centres unmarked) [Example 196A-40, N-(4-(3-(3-tert-butylphenyl)-1-methylpiperidin-3-ylamino)-1-(3,5-difluorophenyl)-3-hydroxybutan-2-yl)acetamide]	–	>2,0
CC(=O)NC(Cc1cc(F)cc(F)c1)C(O)CNC1(c2cccc(Br)c2)CCC2(CC1)OCCO2 (centres unmarked) [Example 196A-47, N-[3-[8-(3-Bromo-phenyl)-1,4-dioxa-spiro[4.5]dec-8-ylamino]-1-(3,5-difluoro-benzyl)-2-hydroxy-propyl]-acetamide]	–	1.7
CC(=O)NC(Cc1cc(F)cc(F)c1)C(O)CNC1(c2cccc(C(C)(C)C)c2)CCC(C#N)CC1 (centres unmarked) [Example 196A-48, N-[3-[1-(3-tert-Butyl-phenyl)-4-cyano-cyclohexylamino]-1-(3,5-difluoro-benzyl)-2-hydroxy-propyl]-acetamide]	–	1.7
CC(=O)NC(Cc1cc(F)cc(F)c1)C(O)CNC1(c2cccc(-c3ccsc3)c2)CCC(=O)CC1 (centres unmarked) [Example 196A-49, N-{1-(3,5-Difluoro-benzyl)-2-hydroxy-3-[4-oxo-1-(3-thiophen-3-yl-phenyl)-cyclohexylamino]-propyl}-acetamide]	–	4.4

Reference: patent US20060014790A1, “Methods of treatment of amyloidosis using spirocyclohexane aspartyl-protease inhibitors” (priority 2004, published 2006)
